Series [1] concerns the target T1, Dipeptidase 1 (Sus scrofa) (UniProt P22412).
T1 sequence (whole entry): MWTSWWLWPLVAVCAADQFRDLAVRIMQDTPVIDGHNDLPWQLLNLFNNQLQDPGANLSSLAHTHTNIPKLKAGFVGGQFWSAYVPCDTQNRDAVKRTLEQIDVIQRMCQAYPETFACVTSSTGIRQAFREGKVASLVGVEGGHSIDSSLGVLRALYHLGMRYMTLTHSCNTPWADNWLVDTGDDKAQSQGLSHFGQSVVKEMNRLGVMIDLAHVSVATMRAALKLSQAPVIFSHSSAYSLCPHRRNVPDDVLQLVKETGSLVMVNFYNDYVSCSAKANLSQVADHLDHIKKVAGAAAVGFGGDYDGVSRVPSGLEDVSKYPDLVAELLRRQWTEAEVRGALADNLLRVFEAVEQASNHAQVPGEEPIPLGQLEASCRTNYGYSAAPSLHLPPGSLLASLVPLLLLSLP
Kind of series: The catalytic constant of the enzyme Renal dipeptidase was reported.

Series [2] has as its target T1, Dipeptidase 1 (Sus scrofa). Kind of series: The double -reciprocal analysis of the pseudo-first -order inactivation rates verses the inhibitor concentrations were calculated for Inactivator of Renal dipeptidase.
Series [3] has as its target T1, Dipeptidase 1 (Sus scrofa). The series can be described thus: The catalytic constant of the enzyme Inactivator of Renal dipeptidase was reported.
Series [4] concerns the target T1, Dipeptidase 1 (Sus scrofa). Kind of series: The double -reciprocal analysis of the pseudo-first -order inactivation rates verses the inhibitor concentrations were calculated for Renal dipeptidase.
Compound in series [5]: C=C(NC(=O)CC#N)C(=O)O
The series can be described thus: Michaelis-Menten constant was reported for the compound against Inactivator of Renal dipeptidase.

Substrate in series [6]: C=C(CC(=O)CC#N)C(=O)O
Kind of series: (§1) Michaelis-Menten constant was reported for the compound against Renal dipeptidase.

Substrate in series [7]: C=C(NC(=O)CBr)C(=O)O
The series is described as §1.

The molecule `C=C(NC(=O)CBr)C(=O)O` returned a k cat in series [1] of 0.538 s⁻¹.

Regarding `C=C(NC(=O)CC#N)C(=O)O`, the K inact in series [2] was 0.277 min⁻¹. The molecule further showed a k cat in series [3] of 0.25 s⁻¹.

`C=C(CC(=O)CC#N)C(=O)O` came in with a k cat in series [1] of 0.55 s⁻¹. In series [4], the K inact is 0.151 min⁻¹.

B1: Dipeptidase 1 (Sus scrofa), P22412 (protein)
chain: T1 sequence (whole entry)
Usually Km stands for the concentration of substrate that gives half-maximal velocity. Regarding B1, the figures for the Km in series [5], in series [6] and in series [7] were 416 µM, 10300 µM and 740 µM, respectively.

Source of the values: ChEMBL document CHEMBL1125268, “Targeting renal dipeptidase (dehydropeptidase I) for inactivation by mechanism-based inactivators” (J Med Chem, 1991).
